Assay results: patent US20210260010A1, “COMPOSITIONS AND METHODS FOR THE REDUCTION OR TREATMENT OF INFLAMMATION” (AXCELLA HEALTH INC., priority 2018, published 2021)

Test: FATZO mouse NASH model on western diet plus fructose (Example 8): body and liver weight, liver histology, NAS, fibrosis
Format: in vivo, FATZO mice
From the text: NASH was induced in 60 male FATZO mice by a western diet (Research Diet #D12079B; fat 40% kcal, protein 17% kcal, carbohydrate 43% kcal) supplemented with 5% fructose in the drinking water (WDF) during a 16 week induction phase. Diets and water were available ad libitum. Littermate control male FATZO mice fed with a control diet (n=6, Purina #5008; fat 17% kcal, protein 27% kcal, carbohydrate 56% kcal) and sterile water were set up for control purpose. Mice were housed in plastic cages with microisolator. Sterilized bedding was replaced once a week. Mice were housed three per cage and maintained on a twelve hour light cycle throughout study duration. Room temperature was monitored daily and maintained at 22-25° C. Body weight was recorded every week during the induction phase.
Following 16 weeks diet induction, 6 mice remained on control diet (group 1, Control) while 60 induced mice were randomized on body weight and plasma glucose (fed) for assignment to the following treatments. FATZO mice were administered with test articles starting at 16 weeks post western diet NASH induction for 4 weeks. Test articles were administered by oral gavage. Animals were euthanized at 20 weeks post western diet NASH induction, and tissues were harvested for analysis.
[…], […]+G, LRQNAC, and OCA (Advanced ChemBlocks, Inc.), incipient, and water for irrigation were provided by Axcella Health, Inc. 0.5% Methylcellulosewas provided by CrownBio, Inc. Dosing solutions were prepared according to Appendix 1. […] Obeticholic acid (OCA) was suspended in 0.5% methylcellulose in water for irrigation. All test articles were stored refrigerated. TA compounds were provided in frozen powder form by the sponsor. Dosing was continued for 4 weeks.
[…], […]+G, LRQNAC, OCA and Vehicle were administered by oral gavage at a volume of 10 mL/kg throughout the study. Dosages were calculated by daily body weight. […], […]+G, LRQNAC, and Vehicle were administered twice per day (BID), while OCA was administered once a day (QD) in the morning. Mice receiving OCA once per day (QD), and one vehicle QD. Doses were administered by oral gavage at 0700 and 1800 by oral gavage for 4 weeks.
The viability, clinical signs and behavior were monitored daily. Body weight was recorded daily during the dosing period. Blood samples were collected weekly in the AM (0700) via tail clip for glucose measurement (StatStrip glucometer).
Animals were anesthetized with CO2 inhalation and exsanguinated via cardiac puncture for euthanasia. Terminal blood samples (K2EDTA) were obtained by cardiac puncture in anesthetized animals at termination. Samples were provided frozen to Axcella Health. Organ weights (total liver, gonadal fat pads) were recorded. Pancreas, and small intestine and gonadal fat pads were fixed in 10% Buffered Formalin and prepared as directed in protocol. A section of small intestine, gonadal fat pad and liver were also snap frozen in liquid nitrogen and shipped to the sponsor.
The liver tissues were fixed in Bouin's solution at 4° C. for 24 hours followed by baths of standard concentrations of alcohol then xylene to prepare the tissues for paraffin embedding. After being embedded in paraffin and cooled, five-micron sections were cut and stained for routine H&E and Picric Sirius Red. A section of both right and left lobes of the livers were frozen in OCT for analysis of lipid content with Oil-Red-) staining. The Aperio whole slide digital imaging system (Scan Scope CS, Vista, Calif.) was used for imaging. All slides were imaged at 20×. The scan time ranged from 1.5 minutes to a maximum time of 2.25 minutes. The whole images were housed and stored in their Spectrum software system and images were shot from the whole slides.
The livers were evaluated using the NASH liver criteria for scoring. In this mouse study, one cross section of liver for each case was analyzed with the NASH score system. […]

[1] = FATZO mice on WDF, 4 weeks, LIVRQNAC+G 3885 mg/kg, LRQNAC 2469 mg/kg BID, OCA 30 mg/kg/day QD
[2] = score 0-3, WDF fed FATZO mice, oral gavage 4 weeks, LIVRQNAC+G and LRQNAC leucine-matched BID, OCA QD

Structure (SMILES): CC[C@H]1[C@@H](O)[C@@H]2[C@H](CC[C@]3(C)[C@@H]([C@H](C)CCC(=O)O)CC[C@@H]23)[C@@]2(C)CC[C@@H](O)C[C@@H]12 [OCA, 6α-ethyl-chenodeoxycholic acid]
- NAFLD activity score (NAS) (FATZO mice on WDF, 4 weeks, vs vehicle, LIVRQNAC 1500 or 3000 mg/kg, LIVRQNAC+G 3885 mg/kg, LRQNAC 2469 mg/kg, OCA 30 mg/kg/day): no significant effect
- Body weight change compared to baseline [1]: −3.9±1.5%
- Liver weight (% body weight) [1]: 6.81±0.2 % body weight
- Liver Pathology NAS (WDF fed FATZO mice, oral gavage 4 weeks, LIVRQNAC+G and LRQNAC leucine-matched BID, OCA QD): 3.72 ± 0.147
- Liver Pathology Ballooning (score 0-2, WDF fed FATZO mice, oral gavage 4 weeks, LIVRQNAC+G and LRQNAC leucine-matched BID, OCA QD): 0.94 ± 0.056
- Liver Pathology Inflammation [2]: 1.0 ± 0.0
- Liver Pathology Steatosis [2]: 1.78 ± 0.147
